As a reminder, the IC50 is the concentration needed to halve the response being measured.

This passage reports Activity and IC50 results from ChEMBL document CHEMBL6177953, “Discovery of a novel quinoxaline derivative modulator via a dual P53/TLR2 targeting strategy for the alleviation of radiation damage” (Eur J Med Chem, 2025).

The test system of data set [1] is AHH-1. As to the kind of experiment: Antiradiation activity in human AHH-1 cells assessed as increase in cell viability at 2.5 to 10 micromol/L pre-treated with compound for 24 hrs followed by irradiation at 6 Gy measured after 24 hrs by CCK-8 assay. It is filed as functional, cell-based. The note with it: dose 2.5-10 µmol/L, time 48.0 hrs. A general note: Formazan colour is commonly taken as a measure of viable cells.

For data set [2], the system named is AHH-1. As to the kind of experiment: Antiradiation activity in human AHH-1 cells assessed as increase in cell viability at 2.5 to 10 micromol/L pre-treated with compound for 24 hrs followed by irradiation at 4 Gy measured after 24 hrs by CCK-8 assay. The note with it: dose 2.5-10 µmol/L, time 48.0 hrs. It is filed as functional, cell-based.
In data set [3] the test system is AHH-1. As to the kind of experiment: Antiradiation activity in human AHH-1 cells assessed as increase in cell viability at 2.5 to 10 micromol/L pre-treated with compound for 24 hrs followed by irradiation at 8 Gy measured after 24 hrs by CCK-8 assay. Type of data set: functional, cell-based. To be noted: dose 2.5-10 µmol/L, time 48.0 hrs.
For data set [4], the system named is AHH-1. As to the kind of experiment: Cytotoxicity against human AHH-1 cells incubated for 24 to 96 hrs by CCK-8 assay. Type of data set: functional, cell-based.
The test system of data set [5] is Mus musculus. As to the kind of experiment: Radioprotective activity in male C57BL/6J mouse assessed as increase in body weight at 100 to 300 mg/kg, ip pre-treated with compound for 24.25 hrs followed by irradiation at 8.5 Gy and measured on day 18 post irradiation. It is filed as functional, organism-based. The note with it: dose 100-300 mg/kg, time 456.25 hrs.

Data set [6] is described as follows: Cytotoxicity against HUVEC incubated for 24 to 96 hrs by CCK-8 assay. The note with it: human, HUVEC cells. It is filed as toxicity, cell-based.
Data set [7] has as its system Mus musculus. As to the kind of experiment: Radioprotective activity in male C57BL/6J mouse assessed as survival rate at 100 mg/kg, ip pre-treated with compound for 24.25 hrs followed by irradiation at 8.5 Gy and measured for 30 days post irradiation relative to control. To be noted: time 744.25 hrs. Type of data set: functional.
In data set [8] the test system is HUVEC. As to the kind of experiment: Antiradiation activity in human HUVEC assessed as cell viability at 5 to 20 micromol/L pre-treated with compound for 24 hrs followed by irradiation at 8 Gy measured after 96 hrs by CCK-8 assay. It is filed as functional, cell-based. To be noted: dose 5-20 µmol/L, time 120.0 hrs.
Data set [9] deals with Mus musculus. As to the kind of experiment: Radioprotective activity in male C57BL/6J mouse assessed as survival rate at 250 mg/kg, ip pre-treated with compound for 24.25 hrs followed by irradiation at 8.5 Gy and measured for 30 days post irradiation relative to control. Type of data set: functional. To be noted: time 744.25 hrs.
Data set [10] has as its system HUVEC. As to the kind of experiment: Antiradiation activity in human HUVEC assessed as cell viability at 5 to 20 micromol/L pre-treated with compound for 24 hrs followed by irradiation at 6 Gy measured after 96 hrs by CCK-8 assay. To be noted: dose 5-20 µmol/L, time 120.0 hrs. It is filed as functional, cell-based.

Calls of active or inactive are those of the source. No cut-off for these calls is given here.

As to `N#Cc1ccc(CS(=O)(=O)c2cnc3cc(Cl)ccc3n2)cc1`, the result in [1], in data set [2] and in data set [3] was Active. In data set [4], half-maximal inhibition (IC50) was put at 4.8 µM.
Consider `COc1ccc(CSc2cnc3cc(Br)ccc3n2)cc1`, for which the result in data set [1], in data set [2] and in data set [3] was Active. The molecule further gave an IC50 in data set [4] of 39.5 µM.
In the case of `O=C(O)c1ccc(CS(=O)(=O)c2cnc3cc(Cl)ccc3n2)cc1`, the outcome in data set [5], in data set [1], in data set [2] and in [3] was Active. Also, the half-inhibitory concentration (IC50) was > 60 µM in data set [6] and 22.4 µM in [4]. Moreover, the Activity in data set [7] turned out to be 50%.
As to `Brc1ccc(CSc2cnc3cc(Br)ccc3n2)cc1`, half-maximal inhibition in data set [4] (IC50) was put at 4.58 µM.
The same measure, in the same setting: then `O=S(=O)(Cc1ccccc1)c1cnc2cc(Cl)ccc2n1`, with 6.27 µM.
Same read-out and setting: with `Cc1ccc(CSc2cnc3cc(Br)ccc3n2)cc1` the figure was 11.3 µM.
The same measure, in the same setting: then `[O-][S+](Cc1ccc(Br)cc1)c1cnc2cc(Cl)ccc2n1` (stereo unspecified), with 12.9 µM.
Regarding `N#Cc1ccc(CSc2cnc3cc(Cl)ccc3n2)cc1`, the outcome in [1], in data set [2] and in data set [3] was Active. For the same molecule, in [4], the half-inhibitory concentration (IC50) is > 60 µM.
On to `N#Cc1ccc(CSc2cnc3ccccc3n2)cc1`, for which the result in data set [1], in data set [2] and in [3] was Active. Also, in data set [4], the IC50 was found to be 17.3 µM.
For the molecule `Fc1ccc(CSc2cnc3cc(Cl)ccc3n2)cc1`, the IC50 in [4] is > 60 µM.
On to `Clc1ccc(CSc2cnc3cc(Br)ccc3n2)cc1`, for which the IC50 in data set [4] stood at 3.03 µM. This counts as single-digit micromolar.
As for `O=C(O)c1ccc(CSc2cnc3cc(Br)ccc3n2)cc1`, the outcome in data set [1], in data set [2] and in [3] was Active. In addition, in data set [4], the concentration for half-maximal inhibition (IC50) is > 60 µM.
On to `COc1ccc(CSc2cnc3ccccc3n2)cc1`, for which the result in data set [1], in data set [2] and in data set [3] was Active. In addition, the half-maximal inhibitory concentration (IC50) in [4] was > 60 µM.
On to `O=S(=O)(Cc1ccc(F)cc1)c1cnc2cc(Br)ccc2n1`, for which the concentration for half-maximal inhibition (IC50) in [4] is > 60 µM.
`[O-][S+](Cc1ccccc1)c1cnc2cc(Cl)ccc2n1` (stereo unspecified) returned an IC50 in data set [4] of 6.28 µM. That is a single-digit micromolar value.
Still for that read-out and setting: with `N#Cc1ccc(C[S+]([O-])c2cnc3cc(Cl)ccc3n2)cc1` (stereo unspecified) the figure was 4.59 µM.
Regarding `O=S(=O)(Cc1ccc(Br)cc1)c1cnc2cc(Cl)ccc2n1`, the result in data set [1], in data set [2] and in [3] was Active. In [4], this molecule gave a half-maximal inhibitory concentration (IC50) of 15.5 µM.
In the case of `[O-][S+](Cc1ccc(F)cc1)c1cnc2cc(Br)ccc2n1` (stereo unspecified), the 50% inhibitory concentration (IC50) in data set [4] is > 60 µM.
Regarding `Fc1ccc(CSc2cnc3ccccc3n2)cc1`, the result in data set [1], in data set [2] and in data set [3] was Active. For the same molecule, the IC50 in data set [4] was found to be 58.8 µM.
`O=S(=O)(Cc1ccc(Br)cc1)c1cnc2cc(Br)ccc2n1`: the IC50 in data set [4] is 21.7 µM. This lies in the double-digit micromolar range.
In data set [4], `Cc1ccc(C[S+]([O-])c2cnc3cc(Cl)ccc3n2)cc1` (stereo unspecified) showed a half-inhibitory concentration (IC50) of 13 µM. This IC50 lies about 1.7-fold lower than the previous one.
Molecule `O=S(=O)(Cc1ccc(Cl)cc1)c1cnc2cc(Cl)ccc2n1` yielded a half-maximal inhibitory concentration (IC50) in data set [4] of 18.6 µM. This IC50 and that of the molecule before are within 1.5-fold of each other.
Still for that read-out and setting: then `[O-][S+](Cc1ccc(F)cc1)c1cnc2cc(Cl)ccc2n1` (stereo unspecified), with 5.23 µM; and `O=S(=O)(Cc1ccc(Cl)cc1)c1cnc2ccccc2n1`, with 5.56 µM.
Consider `Fc1ccc(CSc2cnc3cc(Br)ccc3n2)cc1`, for which the result in data set [1], in data set [2] and in [3] was Active. Further, the IC50 in data set [4] is 22.2 µM.
As to `O=S(=O)(Cc1ccc(F)cc1)c1cnc2cc(Cl)ccc2n1`, the outcome in [1], in [2] and in data set [3] was Active. Further, the IC50 in [4] is 6.32 µM.
As to `Cc1ccc(CS(=O)(=O)c2cnc3ccccc3n2)cc1`, the result in data set [5], in data set [8], in data set [1], in data set [2], in data set [10] and in [3] was Active. The Activity in data set [9] is 80%. Moreover, the IC50 in data set [6] came to 56.1 µM; in [4] it was 36.5 µM.
Turning to `[O-][S+](Cc1ccc(Br)cc1)c1cnc2ccccc2n1` (stereo unspecified), the IC50 in [4] was > 60 µM.
As for `Cc1ccc(CSc2cnc3cc(Cl)ccc3n2)cc1`, the outcome in data set [1], in [2] and in data set [3] was Active. For the same molecule, in [4], the IC50 is > 60 µM.
As for `Cc1ccc(CS(=O)(=O)c2cnc3cc(Cl)ccc3n2)cc1`, the IC50 in [4] stood at 27.7 µM.
Turning to `O=S(=O)(Cc1ccc(F)cc1)c1cnc2ccccc2n1`, the IC50 in data set [4] is > 60 µM.
In [4], `[O-][S+](Cc1ccc(Cl)cc1)c1cnc2cc(Cl)ccc2n1` (stereo unspecified) displayed a half-inhibitory concentration (IC50) of 11.2 µM.
The same measure, in the same setting: with `O=S(=O)(Cc1ccc(Cl)cc1)c1cnc2cc(Br)ccc2n1` the figure was > 60 µM.
Same read-out and setting: then `Clc1ccc2nc(SCc3ccc(Br)cc3)cnc2c1`, with > 60 µM.
Consider `Clc1ccc2nc(SCc3ccccc3)cnc2c1`, for which the outcome in data set [1], in data set [2] and in [3] was Active. Besides, the IC50 in data set [4] was > 60 µM.
As to `Cc1ccc(CS(=O)(=O)c2cnc3cc(Br)ccc3n2)cc1`, in data set [4], the half-maximal inhibitory concentration (IC50) is > 60 µM.
Regarding `Clc1ccc(CSc2cnc3ccccc3n2)cc1`, the outcome in data set [1], in [2] and in [3] was Active. The IC50 in [4] was determined as 16.6 µM.
Turning to `O=C(O)c1ccc(CSc2cnc3ccccc3n2)cc1`, the result in data set [1], in [2] and in data set [3] was Active. For the same molecule, in [4], the IC50 is > 60 µM.
For the molecule `O=C(O)c1ccc(CSc2cnc3cc(Cl)ccc3n2)cc1`, the outcome in [1], in data set [2] and in [3] was Active. Moreover, the IC50 in data set [4] is > 60 µM.
As for `Brc1ccc(CSc2cnc3ccccc3n2)cc1`, the result in [1], in data set [2] and in data set [3] was Active. The same molecule registered an IC50 in data set [4] of 8.9 µM.
As for `[O-][S+](Cc1ccc(F)cc1)c1cnc2ccccc2n1` (stereo unspecified), the result in [1], in data set [2] and in data set [3] was Active. In addition, in data set [4], the half-maximal inhibitory concentration (IC50) was > 60 µM.
`O=S(=O)(Cc1ccc(Br)cc1)c1cnc2ccccc2n1`: the result in [1], in [2] and in data set [3] was Active. For the same molecule, the IC50 in data set [4] was > 60 µM.
Turning to `Clc1ccc(CSc2cnc3cc(Cl)ccc3n2)cc1`, the result in [1], in [2] and in data set [3] was Active. In data set [4], this molecule had an IC50 of 53.8 µM.
Regarding `O=C(O)c1ccc(CS(=O)(=O)c2cnc3ccccc3n2)cc1`, the result in data set [1], in data set [2] and in data set [3] was Active. Moreover, in data set [4], the half-inhibitory concentration (IC50) was > 60 µM.
For `COc1ccc(CSc2cnc3cc(Cl)ccc3n2)cc1`, the result in data set [1], in data set [2] and in [3] was Active. Besides, in data set [4], the half-inhibitory concentration (IC50) was > 60 µM.
For `Cc1ccc(CSc2cnc3ccccc3n2)cc1`, the result in data set [1], in [2] and in data set [3] was Active. Moreover, in data set [4], the 50% inhibitory concentration (IC50) was > 60 µM.
